Data on 8 compounds can be found in patent publication US10780078B2, “Mu opioid receptor modulators” (THE REGENTS OF THE UNIVERSITY OF CALIFORNIA, priority 2017, dated 2020).

Experiment [1] deals with δ (DOR) receptor (Homo sapiens (Human), UniProt P41143). Put plainly: Inhibitory constant at δ opioid receptor (DOR). Type of experiment: binding.
Experiment [2] has as its target μ (MOR) receptor (Homo sapiens (Human), UniProt P35372). Kind of experiment: Inhibitory constant at μ opioid receptor (MOR). It counts as binding.
Experiment [3] concerns the target human μOR (Homo sapiens (Human), UniProt P35372). Put plainly: cell-based. Here is the method:
Determination of functional activity of selected embodiments was performed using a BRET-based cAMP accumulation assay. […] After 24 hrs of transfection cells were seeded into white half-area 96-well plates at a density of 10000 cells/well and grown for further 24 hrs. On the day of measurement, medium was removed and replaced by Phosphate Buffered Saline (PBS) and cells were serum starved for 1 hr before treatment with ligands. Cells were preincubated with coelenterazine h (Progmega, Mannheim, Germany) for 5 min at a final concentration of 5 μM before adding forskolin (final concentration 10 μM) to start cAMP accumulation. Immediately after adding forskolin, a series of concentrations of test compounds were added to the cells. After incubating the microplates for 15 min at 37° C. BRET, measurement was performed using a Clariostar plate reader (BMG LabTech, Ortenberg, Germany).

In experiment [4] the target is MOR (ProLink tagged MOR-PK1 / β-arrestin-2) (Homo sapiens (Human), UniProt P35372). Put plainly: β-arrestin recruitment, PathHunter enzyme complementation assay (DiscoverX). Type of experiment: cell-based. As to conditions: for MOR activation, β-arrestin recruitment Emax: HEK-293 cells, normalized to maximum effect of DAMGO (100%); for Emax: HEK293, read-out: MOR activation, β-arrestin recruitment Emax. Here is the method:
(§1) β-Arrestin recruitment was measured by using the PathHunter enzyme complementation assay (DiscoverX, Birmingham, U.K.) as described in the manufacturer's protocol. […] After 24 h cells were transferred into white clear bottom 384-well plates (5000 cells/well) (Greiner Bio-One) and maintained for further 24 h at 37° C., 5% CO2. Test compounds were incubated with the cells in a range from 0.01 nM to 1 μM dissolved in PBS for 90 min at 37° C. Arrestin recruitment was stopped by addition of detection mix for 60 min at room temperature. Chemiluminescence was determined using a Clariostar plate reader. Data analysis was done by nonlinear regression using the algorithms for log(agonist) vs. response of PRISM 6.0 (GraphPad, San Diego, Calif.). […] For testing the arrestin recruitment in the presence of GRK proteins cells were cotransfected with ProLink tagged MOR-PK1 and GRK2 at equal quantities.

For experiment [5], the target named is MOR (ProLink tagged MOR-PK1 cotransfected with GRK2 / β-arrestin-2) (Homo sapiens (Human), UniProt P35372). Kind of experiment: β-arrestin recruitment in the presence of GRK2, PathHunter assay. It counts as cell-based. As to conditions: for MOR activation, β-arrestin recruitment (+GRK2) Emax: HEK-293 cells cotransfected with GRK2; for EC50: MOR activation, β-arrestin recruitment (+GRK2) EC50, HEK-293 cells cotransfected with GRK2. Here is the method:
as §1

[6] abbreviates: Example 1, read-out: MOR: cAMP BRET: EC50.
The mark [7] stands for this setting: HEK-293T cells, forskolin 10 μM, mean of three to ten experiments, read-out: MOR activation, cAMP accumulation EC50.
[8] abbreviates: normalized to maximum effect of DAMGO (100%).

Where two headings read alike, the source gives them in different places.

δ (DOR) receptor, sequence (P41143 whole entry, looked up): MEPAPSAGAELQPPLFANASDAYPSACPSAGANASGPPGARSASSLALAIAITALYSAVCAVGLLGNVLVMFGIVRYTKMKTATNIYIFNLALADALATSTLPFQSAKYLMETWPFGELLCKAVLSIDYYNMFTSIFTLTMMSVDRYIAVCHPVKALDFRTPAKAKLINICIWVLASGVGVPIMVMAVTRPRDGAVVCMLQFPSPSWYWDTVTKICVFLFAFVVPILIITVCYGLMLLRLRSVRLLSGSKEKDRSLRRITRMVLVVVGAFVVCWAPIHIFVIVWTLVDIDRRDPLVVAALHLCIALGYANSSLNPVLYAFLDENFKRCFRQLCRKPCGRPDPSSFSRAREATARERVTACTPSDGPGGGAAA

As for `C[C@@H](Cc1ccsc1)NC(=O)NCC1(N(C)C)CCc2ccccc2C1` (single isomer, unassigned) [DD 262 P1], the Ki (as a rule, a measure of affinity in units of concentration, obtained from inhibition or displacement) in experiment [1] was 14000 nM; in experiment [2] it was 2600 nM.
`C[C@@H](Cc1ccsc1)NC(=O)NCC1(N(C)C)CCc2ccccc2C1` (single isomer, unassigned) [DD 262 P2]: the values for the Ki in experiment [1] and in experiment [2] were 7400 nM and 1300 nM, respectively.
For `C[C@@H](Cc1ccsc1)NC(=O)NCC1(N(C)C)CCc2cc(O)ccc2C1` (single isomer, unassigned) [DD 272A], the figures for the Ki in experiment [1] and in experiment [2] were 1800 nM and 140 nM, respectively. The “MOR activation, cAMP accumulation Emax” value in experiment [3] turned out to be 75%. Also, the “MOR: cAMP BRET: Emax” value in experiment [3] (Example 1) is recorded as 108%. The figures for the EC50 in experiment [3] (setting [6]) and in experiment [3] (setting [7]) were 136 nM and 24 nM, respectively. For the same compound, the “MOR activation, β-arrestin recruitment Emax” value in experiment [4] was less than 3%. Moreover, the “MOR activation, β-arrestin recruitment (+GRK2) Emax” value (shortened to “MOR activation … (+GRK2) Emax”) in experiment [5] (setting [8]) is less than 3%.
For the compound `C[C@@H](Cc1ccsc1)NC(=O)NCC1(N(C)C)CCc2cc(O)ccc2C1` (single isomer, unassigned) [DD 272B], the Ki was determined as 840 nM in experiment [1] and 57 nM in experiment [2]. Further, the “MOR activation, cAMP accumulation Emax” value in experiment [3] was 98%. In addition, the “MOR: cAMP BRET: Emax” value in experiment [3] (Example 1) is recorded as 50%. In addition, the EC50 (commonly the concentration needed to bring the measured effect to its halfway point) in experiment [3] (setting [6]) was determined as 1.6 nM; in experiment [3] (setting [7]), 1.5 nM; in experiment [5], 450 nM. Also, the Emax (in general, the size of the effect at its maximum, as opposed to the concentration needed) in experiment [4] is less than 3%. Moreover, the “MOR activation … (+GRK2) Emax” value in experiment [5] (setting [8]) was 7%.
As to `C[C@@H](Cc1ccsc1)NC(=O)NCC1(N(C)C)Cc2ccc(O)cc2C1` (single isomer, unassigned) [DD 297A], the Ki in experiment [1] turned out to be 68 nM; in experiment [2], 5.9 nM. Moreover, the values for the EC50 in experiment [3] (setting [6]), in experiment [3] (setting [7]) and in experiment [5] were 1.8 nM, 1.2 nM and 42 nM, respectively. The Emax in experiment [3] (Example 1, read-out: MOR: cAMP BRET: Emax) is 80%; in experiment [3] (HEK-293T, read-out: MOR activation, cAMP accumulation Emax), 80%; in experiment [4], less than 3%; in experiment [5] (HEK293, read-out: MOR activation, β-arrestin recruitment (+GRK2) Emax, HEK-293 cells cotransfected with GRK2, normalized to maximum effect of DAMGO (100%)) it was 13%.
Consider `C[C@@H](Cc1ccsc1)NC(=O)NCC1(N(C)C)Cc2ccc(O)cc2C1` (single isomer, unassigned) [DD 297B], for which the figures for the Ki in experiment [1] and in experiment [2] were 2000 nM and 190 nM, respectively. In addition, in experiment [3], the “MOR activation, cAMP accumulation Emax” value is recorded as 73%. The “MOR: cAMP BRET: Emax” value in experiment [3] (Example 1) stood at 65%. The EC50 in experiment [3] (setting [6]) was 12.5 nM; in experiment [3] (setting [7]), 13 nM; in experiment [5] it was 670 nM. In experiment [4], the “MOR activation, β-arrestin recruitment Emax” value is listed as less than 3%. In experiment [5] (setting [8]), the “MOR activation … (+GRK2) Emax” value is 7%.
On to `C[C@@H](Cc1ccsc1)NC(=O)NCC1(N(C)C)Cc2ccccc2C1` [DD 277, (S)-1-((2-(dimethylamino)-2,3-dihydro-1H-inden-2-yl)methyl)-3-(1-(thiophen-3-yl)propan-2-yl)urea], for which the values for the Ki in experiment [1] and in experiment [2] were 8400 nM and 500 nM, respectively.
As for `C[C@@H](Cc1ccsc1)NC(=O)NCC1(N(C)C)Cc2ccc(O)cc2C1` (stereo partly drawn) [DD 297A, 1-((2-(dimethylamino)-5-hydroxy-2,3-dihydro-1H-inden-2-yl)methyl)-3-((S)-1-(thiophen-3-yl)propan-2-yl)urea], in experiment [4] (Example 1), the “MOR: Arrestin DiscoverX” value was “no significant activity”.
